In ChEMBL document CHEMBL3400049, “Design strategies to address kinetics of drug binding and residence time” (Bioorg Med Chem Lett, 2015):

What was measured:
[1] = biological target: Histone-lysine N-methyltransferase EZH2 (Homo sapiens) (UniProt Q15910); assay: Binding affinity to EZH2 (unknown origin) assessed as residence time
[2] = biological target: CDK8/Cyclin C (Homo sapiens) (UniProt P49336+P24863); assay: Binding affinity to CDK8/CycC (unknown origin) assessed as residence time; type: protein-complex assay
[3] = biological target: T1, Fatty-acid amide hydrolase 1 (Homo sapiens) (UniProt O00519); assay: Inhibition of recombinant human FAAH assessed as dissociation half life
T1 sequence (whole entry): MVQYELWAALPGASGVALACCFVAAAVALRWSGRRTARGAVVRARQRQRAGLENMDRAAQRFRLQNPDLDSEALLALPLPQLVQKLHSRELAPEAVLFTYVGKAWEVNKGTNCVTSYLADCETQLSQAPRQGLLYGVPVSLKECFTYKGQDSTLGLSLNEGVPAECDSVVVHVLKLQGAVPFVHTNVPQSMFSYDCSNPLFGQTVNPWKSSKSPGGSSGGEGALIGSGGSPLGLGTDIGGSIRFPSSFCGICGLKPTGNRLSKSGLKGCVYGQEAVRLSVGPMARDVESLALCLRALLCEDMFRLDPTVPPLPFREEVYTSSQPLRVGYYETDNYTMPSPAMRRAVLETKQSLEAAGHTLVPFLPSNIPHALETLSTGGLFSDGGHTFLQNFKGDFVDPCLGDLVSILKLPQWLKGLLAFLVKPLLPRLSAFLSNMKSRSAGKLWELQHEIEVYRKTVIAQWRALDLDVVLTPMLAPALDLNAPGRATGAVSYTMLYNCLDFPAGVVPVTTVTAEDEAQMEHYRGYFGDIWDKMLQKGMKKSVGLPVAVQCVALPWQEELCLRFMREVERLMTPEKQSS

Histone-lysine N-methyltransferase EZH2 (Homo sapiens), sequence (Q15910 whole entry, looked up): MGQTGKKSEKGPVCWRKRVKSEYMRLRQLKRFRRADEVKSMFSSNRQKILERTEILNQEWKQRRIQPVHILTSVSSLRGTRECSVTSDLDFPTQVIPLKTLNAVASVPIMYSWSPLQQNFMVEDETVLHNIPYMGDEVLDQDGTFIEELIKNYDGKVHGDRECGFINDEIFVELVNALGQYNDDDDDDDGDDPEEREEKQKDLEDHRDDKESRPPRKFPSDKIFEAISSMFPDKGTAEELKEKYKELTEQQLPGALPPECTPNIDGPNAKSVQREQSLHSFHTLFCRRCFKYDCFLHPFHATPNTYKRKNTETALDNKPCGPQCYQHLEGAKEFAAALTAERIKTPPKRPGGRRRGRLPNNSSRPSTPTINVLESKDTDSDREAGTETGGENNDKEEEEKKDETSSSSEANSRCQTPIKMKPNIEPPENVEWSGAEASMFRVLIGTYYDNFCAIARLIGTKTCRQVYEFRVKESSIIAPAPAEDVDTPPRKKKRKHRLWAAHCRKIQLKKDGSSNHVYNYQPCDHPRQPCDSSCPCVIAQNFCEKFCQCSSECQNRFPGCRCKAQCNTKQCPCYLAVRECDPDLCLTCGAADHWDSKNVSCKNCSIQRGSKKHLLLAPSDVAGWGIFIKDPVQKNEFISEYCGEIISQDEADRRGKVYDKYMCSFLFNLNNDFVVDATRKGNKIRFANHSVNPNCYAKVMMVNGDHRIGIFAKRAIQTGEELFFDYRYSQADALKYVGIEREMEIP

Cc1ccc(CNC(=O)c2cc(-c3ccnc(N4CCN(C)CC4)c3)cc3c2ccn3C(C)C)c(=O)[nH]1 gave a TIME [1] of 1.03 h.

Cc1ccc(-n2nc(C(C)(C)C)cc2NC(=O)NCCN2CCN(C(=O)Nc3cc(C(C)(C)C)nn3-c3ccc(C)cc3)CC2)cc1 was tested, and the TIME [2] was 27.1 h.

For CCCc1cc(C)[nH]c(=O)c1CNC(=O)c1cc(-c2ccnc(N3CCN(C)CC3)c2)cc2c1ccn2C(C)C, the TIME [1] was 0.717 h.

O=C(CCCCCCc1ccccc1)c1ncc(-c2ccccn2)o1 gave a T1/2 [3] greater than 10 h.

O=C(CCCCCCc1ccccc1)c1nc2ncccc2o1 showed a T1/2 [3] greater than 10 h.

Cc1ccc(-n2nc(C(C)(C)C)cc2NC(=O)NCCN2CCOCC2)cc1 was tested, and the TIME [2] was less than 0.0233 h.
